Measured values: ChEMBL document CHEMBL1131657, “Syntheses and kinetic evaluation of hydroxamate-based peptide inhibitors of glyoxalase I” (Bioorg Med Chem Lett, 1998)
Several values for one entry are separate records, joined by “and”; a condition that tells them apart may be missing. Equal values may be shown once. *1 amine or outer side, *2 acyl side, *3 side chain or, on linkers, in order; H or OH if unused. Where a SMILES comes first, the peptide text is derived from it. The star is where a group is joined. γGlu = O=C(O)[CH](CCC(=O)[*:2])N[*:1]; NHOH = ON*

Assays:
[1] = tested on: Plasmodium falciparum; test: Antimalarial activity against Plasmodium falciparum D6 (Sierra Leone); moderate activity; format: functional, organism-based
[2] = tested on: Plasmodium falciparum; test: Antimalarial activity against Plasmodium falciparum W2 Indochina; moderate activity; format: functional, organism-based
[3] = tested on: SNB-75; test: Antitumor activity was evaluated for reduction of growth of SNB-75 cancer cells at a concentration of 100 uM; format: functional, Homo sapiens
[4] = tested on: A498; test: Antitumor activity was evaluated for reduction of growth of renal cancer (A498) cells at a concentration of 100 uM; format: functional, Homo sapiens
[5] = tested on: HL-60; test: Antitumor activity was evaluated for reduction of growth of leukemia(HL-60 (TB)) cancer cells at a concentration of 100 uM; format: functional, Homo sapiens
[6] = Antitumor activity was evaluated for reduction of growth of non-small cell lung (NCL-H522) cancer cells at a concentration of 100 uM; format: functional, Homo sapiens, Cancer cell lines
[7] = tested on: SNB-75; test: Antitumor activity was evaluated for reduction of growth of CNS cancer (SNB-75)cells at a concentration of 100 uM; format: functional, Homo sapiens

SMILES	Activity [1]	Activity [2]	Reduction [3] [%]	Reduction [4]	Reduction [5] [%]	Reduction [6] [%]	Reduction [7] [%]
CN(O)C(=O)CCC(NC(=O)CCC(N)C(=O)O)C(=O)NCC(=O)O (stereo not given)	Poor or moderate activity	Poor or moderate activity	40				
CCOC(=O)CNC(=O)C(CCC(=O)NO)NC(=O)CCC(N)C(=O)O (stereo not given) (γGlu-Glu(NHOH)-Gly-OEt; configuration not given here)				31%			
NC(CCC(=O)NC(CCC(=O)NO)C(=O)NCC(=O)O)C(=O)O (stereo not given) (γGlu-Glu(NHOH)-Gly-OH; configuration not given here)	Poor or moderate activity	Poor or moderate activity		34% and 31%	46	38	31
